In brackets after ≈: the same amount, converted by molar mass. Like-named read-outs stand apart in the source and are kept apart here.
Columns and labels:
[1] = tested on: Bacillus cereus (ATCC10876); assay: MIC/MBC antibiotic sensitivity (CLSI); type: cell-based; conditions: for MBC: read-out: MBC; for MIC: read-out: MIC
How it was run: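 Read-outs were MIC and MBC, both obtained by quantitative methods applied according to Clinical and Laboratory Standards Institute criteria. Test organisms included highly resistant Burkholderia isolates from cystic fibrosis patients' sputum alongside a Gram-positive reference strain.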

[2] = tested on: Burkholderia multivorans (CBC 016); assay: MIC/MBC antibiotic sensitivity (CLSI); type: cell-based; conditions: for MBC: read-out: MBC
How it was run: (§1)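 Compounds tested by two quantitative methods, MIC and MBC, following CLSI criteria, against reference strains and multiresistant cystic fibrosis sputum isolates. Tobramycin, ceftazidime and meropenem included as comparators.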

[3] = tested on: Burkholderia multivorans (CBC 022); assay: MIC/MBC antibiotic sensitivity (CLSI); type: cell-based
How it was run: as §1

[4] = tested on: B. cenacepacia (FQC2524); assay: MIC/MBC antibiotic sensitivity (CLSI); type: cell-based, B. cenocepacia; conditions: Burkholderia cenocepacia
Experimental: (§2) The new compounds of the invention were synthesized following the general method of preparation (Tetrahedron, 2001, 57, 1671-1675), from the reaction between an intermediary compound of the acyl thiourea and HgCl2 in presence of trimethylamine. The products were adequately characterized regarding its chemistry. The antibacterial activity of the new compounds was assayed against two Gram-positive reference strains: Staphylococcus aureus (ATCC6538) and Bacillus cereus (ATCC10876), a fermenting Gram-negative strain: Escherichia coli (ATCC25922), and 26 non-fermenting Gram-negative isolates, including 3 reference strains: Pseudomonas aeruginosa (PAO1), Bordetella bronchiseptica (9.73H+), and Inquilinus limosus (DSM16000), and 23 isolates recovered from patients suffering from cystic fibrosis, including one Achromobacter xylosoxidans isolate, and 22 isolates belonging to the Burkholderia cepacia complex. The later were selected because they presented resistance to a high number of antimicrobial compounds, among a panel of 125 clinical isolates previously analyzed for its resistance against 17 antimicrobial compounds (1,2). The antibiotic sensitivity studies were performed by applying two quantitative methods which allow to determine the minimum inhibitory concentration (MIC) and the minimum bactericidal concentration (MBC).
(§3) The compounds obtained in Examples 1 and 2 were assayed against 23 isolates recovered from the sputum of patients suffering from cystic fibrosis being treated at the Sor Maria Ludovica Children Hospital (La Plata, Buenos Aires, Argentina). Nineteen of these isolates were selected for being highly resistant to most of the antimicrobial agents of clinical use from a panel of 125 isolates previously characterized in Martina et al. (1). Reference strains were also included: Gram (+) bacteria: B. cereus and S. aureus, fermenting Gram (−) bacteria: E. coli, and non-fermenting Gram (−) bacteria: Inquilinus limosus (DSM16000), B. bronchiseptica, and Pseudomonas aeruginosa (PAO1). The antibiotic sensitivity studies were performed applying two quantitative methods which allow to determine the minimum inhibitory concentration (MIC) and the minimum bactericidal concentration (MBC) according to the criteria established by the Clinical and Laboratory Standards Institute (CLSI) (4). For comparative purposes, three antibiotics commonly used in the treatment of pulmonary infections in cystic fibrosis patients were included in the study: tobramycin, ceftazidime and meropenem.

[5] = tested on: Achromobacter xylosaxidans (HNA001); assay: MIC/MBC antibiotic sensitivity (CLSI); type: cell-based, Achromobacter xylosoxidans
Experimental: as §2, §3

[6] = Cytotoxicity assay, Trypan blue vital staining; type: cell-based, human; conditions: human, THP-I monocyte cells; THP-I cells, Trypan Blue; highest drug concentration at which 50% of cells are viable compared with control
Experimental: (§4) For example, the MIC values for E. coli of the guanidine derivatives disclosed in patent application WO 2004073709 A1 are higher than 1 μg/ml. The guanidine derivatives disclosed by Hensler and colleagues (Hensler, M. E.; Bernstein, G.; Nizet, V.; Nefzi, A., Bioorganic & Medicinal Chemistry Letters 2006, 16, 5073-5079) have MIC values higher than 2.5 μg/ml against E. coli. […] In vitro cytotoxicity assays were performed using the human monocyte cell line THP-I and vital staining with Trypan Blue (3). The IC50 value was defined as the higher drug concentration at which 50% of cells are viable compared with the control. […] The Selectivity Index (SI), defined as the ratio between the IC50 and the MIC for each compound, was calculated. Compound H-BDF has an SI>10, which makes it a good antimicrobial candidate according to the criteria set up by Orme (5).
(§5) For assaying the cytotoxicity of the compounds obtained in Examples 1 and 2, cell viability by vital coloration exclusion with Trypan blue (3). The studies were performed using the monocyte cell line THP-I. The IC50 value was defined as the highest drug concentration at which 50% of the cells are viable as compared with the control.

[7] = tested on: Burkholderia seminalis (CBC 040); conditions: reference (1); cited from earlier work
[8] = tested on: human monocyte cell line THP-I; assay: Cytotoxicity assay, Trypan blue vital staining; type: cell-based; conditions: ratio IC50 / MIC, strain not stated
Experimental: as §4, §5

[9] = Burkholderia multivorans (CBC 016)
[10] = Burkholderia multivorans (CBC 016), read-out: MIC
[11] = Burkholderia multivorans (CBC 022)
[12] = Burkholderia multivorans (CBC 022), read-out: MIC
[13] = Achromobacter xylosaxidans (HNA001)
[14] = Achromobacter xylosaxidans (HNA001), read-out: MIC

MIC [1] [µg/mL]	MIC [2, 10] [µg/mL]	MIC [3, 12] [µg/mL]	MIC ([4]; read-out: MIC) [µg/mL]	MIC [5, 14] [µg/mL]	melting point [°C]	SMILES	MBC [1] [µg/mL]	MBC [2, 9] [µg/mL]	MBC [3, 11] [µg/mL]	MBC [4] [µg/mL]	MBC [5, 13] [µg/mL]	IC50 [6] [µg/mL]	further results
7.81 (≈ 16.7 µM)						NC[C@H]1O[C@H](O[C@H]2[C@H](O)[C@@H](O[C@H]3O[C@H](CO)[C@@H](O)[C@H](N)[C@H]3O)[C@H](N)C[C@@H]2N)[C@H](N)C[C@@H]1O [Tobramucin, tobramycin]	31.2 (≈ 66.8 µM)						MIC ([2]; Burkholderia multivorans, Tobramucin, CLSI criteria, B. multivorans (CBC 016), read-out: MIC (R/I/S category)): > 16 µg/mL; MIC ([3]; Burkholderia multivorans, Tobramucin, CLSI criteria, B. multivorans (CBC 022), read-out: MIC (R/I/S category)): > 16 µg/mL; MIC ([4]; Tobramucin, CLSI criteria, read-out: MIC (R/I/S category)): > 16 µg/mL; MIC ([5]; Achromobacter, Tobramucin, CLSI criteria, A. xylosaxidans (HNA001), read-out: MIC (R/I/S category)): > 16 µg/mL
66.4 (≈ 100 µM)	66.4 (≈ 100 µM)	133 (≈ 200 µM)	15.6 (≈ 23.5 µM)	7.8 (≈ 11.7 µM)	144	O=C(NC(=Nc1c(Br)cc(F)cc1Br)Nc1c(F)cc(F)cc1Br)C12CC3CC(CC(C3)C1)C2 [H-DBF, N—(N-(2-bromo-4,6-difluorophenyl)-N′-(2,6-dibromo-4-fluorophenyl)carbamimidoyl) adamantane-1-carboxamide]	66.4 (≈ 100 µM)	> 132	> 133	31.2 (≈ 47.1 µM)	31.2 (≈ 47.1 µM)	> 132	
< 0.48						C[C@@H](O)[C@H]1C(=O)N2C(C(=O)O)=C(S[C@@H]3CN[C@H](C(=O)N(C)C)C3)[C@H](C)[C@H]12 [Meropenem, meropenem]	< 0.48		7.81 (≈ 20.4 µM)		7.81 (≈ 20.4 µM)		MIC ([2]; Burkholderia multivorans, Meropenem, CLSI criteria, B. multivorans (CBC 016), read-out: MIC (R/I/S category)): > 16 µg/mL; MIC ([3]; Burkholderia multivorans, Meropenem, CLSI criteria, B. multivorans (CBC 022), read-out: MIC (R/I/S category)): < 4 µg/mL; MIC ([4]; Meropenem, CLSI criteria, read-out: MIC (R/I/S category)): < 4 µg/mL; MIC ([5]; Achromobacter, Meropenem, CLSI criteria, A. xylosaxidans (HNA001), read-out: MIC (R/I/S category)): < 4 µg/mL; resistance of the strain to commercial antibiotics [7]: resistant
1.95 (≈ 3.23 µM)	1.95 (≈ 3.23 µM)	3.9 (≈ 6.46 µM)	0.97 (≈ 1.61 µM)	< 0.48	174	O=C(NC(=Nc1c(F)cc(F)cc1Br)Nc1c(F)cc(F)cc1Br)C12CC3CC(CC(C3)C1)C2 [H-BDF, N—(N,N′-bis(2-bromo-4,6-difluorophenyl)carbamimidoyl)adamantane-1-carboxamide]	1.95 (≈ 3.23 µM)	7.81 (≈ 12.9 µM)	7.8 (≈ 12.9 µM)	3.9 (≈ 6.46 µM)	< 0.48	15.2 (≈ 25.3 µM)	Selectivity Index (SI) [8]: > 10
